Results taken from patent publication US8563729B2, “Thienopyridone derivatives as AMP-activated protein kinase (AMPK) activators” (Merck Patent GmbH, priority 2008, dated 2013).

How the values were obtained:
[1] = ob/ob and db/db mice, 8 day AICAR administration; cited from earlier work
H-2 Kb cells = test: Glucose uptake in H-2 Kb cells (in vitro cellular test); format: cell-based, mouse; settings: H-2 Kb cells differentiated in muscle, 4 hours incubation, 2-deoxy-D-[1,2 3H] glucose uptake 10 min
Summary of the method: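 H-2 Kb tsA58 mouse cells were differentiated to muscle at 37° C without interferon-γ for 3 days, then exposed to compound for 4 h in 1 g/l glucose DMEM. Uptake of 3H-2-deoxyglucose over 10 min was measured by scintillation. Activity was taken as the compound concentration matching or exceeding uptake with insulin (170 nM), scored ≦10 or >10 micro Molar.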

[2] = target: T1, AMPK protein (recombinant α1β1γ2) (Homo sapiens, UniProt Q13131+Q9Y478); test: AMPK enzymatic activity (Delfia, AMARA peptide substrate); format: biochemical; settings: compound 30 μM vs AMP 30 μM; 125 μM ATP; ratio 90% or higher = direct activator
T1 construct: made in house; host or cells: E. coli
T1 sequence (Q13131 whole entry): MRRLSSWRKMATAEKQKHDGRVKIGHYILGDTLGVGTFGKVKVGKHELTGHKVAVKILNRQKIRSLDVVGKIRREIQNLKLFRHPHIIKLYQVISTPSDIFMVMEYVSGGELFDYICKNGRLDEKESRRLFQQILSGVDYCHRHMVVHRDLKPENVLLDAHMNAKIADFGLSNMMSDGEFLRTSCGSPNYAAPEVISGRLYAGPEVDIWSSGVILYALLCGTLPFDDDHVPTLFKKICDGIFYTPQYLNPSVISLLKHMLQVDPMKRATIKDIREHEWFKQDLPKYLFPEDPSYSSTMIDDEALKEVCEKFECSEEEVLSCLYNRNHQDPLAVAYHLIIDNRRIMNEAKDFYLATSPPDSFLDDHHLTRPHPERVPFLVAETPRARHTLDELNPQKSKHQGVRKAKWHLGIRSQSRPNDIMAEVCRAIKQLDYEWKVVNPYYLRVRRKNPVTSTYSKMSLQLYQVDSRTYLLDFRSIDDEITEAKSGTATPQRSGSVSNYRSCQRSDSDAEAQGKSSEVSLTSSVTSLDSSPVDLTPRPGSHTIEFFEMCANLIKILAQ
T1 sequence (Q9Y478 whole entry): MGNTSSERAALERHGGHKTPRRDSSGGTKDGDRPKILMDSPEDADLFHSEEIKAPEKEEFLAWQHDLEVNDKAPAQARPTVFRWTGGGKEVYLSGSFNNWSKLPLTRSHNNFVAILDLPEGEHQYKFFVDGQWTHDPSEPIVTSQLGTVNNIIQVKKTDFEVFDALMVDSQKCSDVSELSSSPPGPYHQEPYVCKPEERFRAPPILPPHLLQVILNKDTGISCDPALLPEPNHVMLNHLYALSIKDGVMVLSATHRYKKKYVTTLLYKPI
T1 sequence (Q9UGJ0 whole entry partner): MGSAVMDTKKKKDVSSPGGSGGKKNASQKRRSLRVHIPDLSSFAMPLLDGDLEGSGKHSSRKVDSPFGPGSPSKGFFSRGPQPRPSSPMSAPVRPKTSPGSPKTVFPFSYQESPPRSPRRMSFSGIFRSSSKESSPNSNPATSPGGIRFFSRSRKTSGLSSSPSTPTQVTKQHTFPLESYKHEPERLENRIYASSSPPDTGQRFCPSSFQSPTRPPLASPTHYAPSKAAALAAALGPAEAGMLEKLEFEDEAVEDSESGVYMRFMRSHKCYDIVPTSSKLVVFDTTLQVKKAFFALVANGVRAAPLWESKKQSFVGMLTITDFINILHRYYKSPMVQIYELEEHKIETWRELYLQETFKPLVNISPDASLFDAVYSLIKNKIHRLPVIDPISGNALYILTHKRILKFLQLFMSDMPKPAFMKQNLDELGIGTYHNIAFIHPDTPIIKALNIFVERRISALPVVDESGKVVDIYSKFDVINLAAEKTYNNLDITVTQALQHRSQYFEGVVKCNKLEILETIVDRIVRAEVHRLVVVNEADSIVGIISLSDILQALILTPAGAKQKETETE
Summary of the method: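 Human α1β1γ2 AMPK expressed in E. coli, reactivated in vitro by LKB1, assayed in 50 mM Hepes pH 7.4 with 125 μM ATP and AMARA peptide for 30 min at room temperature; phosphorylation detected by Delfia anti-phosphoserine antibody. Activity = % of basal control at 30 μM compound relative to that of 30 μM AMP.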

Row | Structure (SMILES) | activity: Ratio between the % of control (basal activity) of compound of formula (I) at 30 μM and the % of control (basal activity) of AMP at 30 μM [2] [%] | reduction of blood glucose [1] [%] | Activity (table III): Concentration of compound (I) for a glucose uptake equal or higher to glucose uptake induced by insulin (170 nM) (H-2 Kb cells)
1 | NC(=O)c1ncn([C@@H]2O[C@H](CO)[C@@H](O)[C@H]2O)c1N [AICAR] | – | 35 | –
2 | COc1cccc(-c2c(O)c3c(-c4ccccc4)c(C)sc3[nH]c2=O)c1 [Compound 15] | 181 | – | * (^+ or *concentration of compound (I) >10 micro Molar)
3 | Cc1ccc(-c2csc3[nH]c(=O)c(-c4ccccc4)c(O)c23)c(O)c1F [Compound 198] | 363 | – | + (^+ or *concentration of compound (I) >10 micro Molar)
4 | COc1ccc(-c2c(O)c3c(-c4ccc(F)cc4O)csc3[nH]c2=O)cc1 [Compound 191] | 187 | – | + (^+ or *concentration of compound (I) >10 micro Molar)
5 | O=c1[nH]c2sc(Cl)c(-c3ccccc3F)c2c(O)c1-c1ccccc1 [Compound 119] | 101 | – | * (^+ or *concentration of compound (I) >10 micro Molar)
6 | COc1c(-c2c(Cl)sc3[nH]c(=O)c(-c4ccccc4)c(O)c23)ccc(C)c1C [Compound 201] | 122 | – | + (^+ or *concentration of compound (I) >10 micro Molar)
7 | O=c1[nH]c2scc(-c3ccccc3)c2c(O)c1-c1ccc(O)cc1 [Compound 20] | 99 | – | * (^+ or *concentration of compound (I) >10 micro Molar)
8 | O=c1[nH]c2scc(-c3ccc4ccccc4c3)c2c(O)c1-c1ccccc1 [Compound 33] | 201 | – | * (^+ or *concentration of compound (I) >10 micro Molar)
9 | COc1ccc(-c2c(Cl)sc3[nH]c(=O)c(-c4ccccc4)c(O)c23)cc1OC [Compound 190] | 256 | – | + (^+ or *concentration of compound (I) >10 micro Molar)

More lines, main results first:

Row | activity: Ratio between the % of control (basal activity) of compound of formula (I) at 30 μM and the % of control (basal activity) of AMP at 30 μM [2] [%] | Structure (SMILES) | reduction of blood glucose [1] [%] | Activity (table III): Concentration of compound (I) for a glucose uptake equal or higher to glucose uptake induced by insulin (170 nM) (H-2 Kb cells)
10 | 354 | Cc1ccccc1-c1c(O)c2c(-c3ccccc3)c(Cl)sc2[nH]c1=O [Compound 164] | – | + (^+ or *concentration of compound (I) >10 micro Molar)
11 | 116 | Cc1sc2[nH]c(=O)c(-c3ccc(O)cc3)c(O)c2c1-c1ccccc1 [Compound 14] | – | * (^+ or *concentration of compound (I) >10 micro Molar)
12 | 95 | O=c1[nH]c2sc(Cl)c(-c3ccccc3)c2c(O)c1-c1ccc(O)cc1 [Compound 156] | – | ** (^++ or **concentration of compound (I) ≦10 micro Molar)
13 | 114 | O=c1[nH]c2sc(Cl)c(-c3ccc(O)cc3)c2c(O)c1-c1ccccc1 [Compound 138] | – | ** (^++ or **concentration of compound (I) ≦10 micro Molar)
14 | 592 | COc1ccc(-c2c(O)c3c(-c4ccccc4)c(Cl)sc3[nH]c2=O)cn1 [Compound 167] | – | ++ (^++ or **concentration of compound (I) ≦10 micro Molar)
15 | 165 | CC(C)c1ccc(-c2c(Cl)sc3[nH]c(=O)c(-c4ccccc4)c(O)c23)cc1 [Compound 182] | – | + (^+ or *concentration of compound (I) >10 micro Molar)
